Measurements reported in US6455540B1, “Methods of use of quinolone compounds against anaerobic pathogenic bacteria” (priority 1999, dated 2002).

What was measured:
Assay in all cases: Agar dilution MIC
Porphyromonas gingivalis = assay type: cell-based; settings: Porphyromonas gingivalis, 13 isolates
Bacteroides gracilis = assay type: cell-based, Bacteroides gracilis (Campylobacter gracilis); settings: 11 isolates
Veillonella spp. = assay type: cell-based; settings: Veillonella, 24 isolates
Clostridium ramosum = assay type: cell-based; settings: Thomasclavelia ramosa, 10 isolates
[1] = test system: Anaerobiospirillum thomasii; assay type: cell-based; settings: Anaerobiospirillum thomasii, 13 isolates
[2] = test system: Fusobacterium spp. group 2; assay type: cell-based, Fusobacterium mortiferum, necrogenes, ulcerans; settings: Fusobacterium, 12 isolates
Clostridium dfficile = assay type: cell-based, Clostridium difficile; settings: Clostridium
Bacteroides tectum = assay type: cell-based; settings: 22 isolates
Bilophila wadsworthia = assay type: cell-based; settings: 16 isolates, agar supplemented with pyruvate
Clostridium inocuum = assay type: cell-based, Clostridium innocuum; settings: Clostridium, 11 isolates
Prevotella intermedia = assay type: cell-based; settings: 11 isolates
[3] = test system: Peptostreptococcus prevotii; assay type: cell-based; settings: Anaerococcus prevotii, read-out: Minimal Inhibitory Concentration 50% (MIC50); 9 isolates
Porphyromonas canoris = assay type: cell-based; settings: Porphyromonas canoris, 10 isolates
[4] = test system: Peptostreptococcus magnus; assay type: cell-based; settings: Finegoldia magna, 13 isolates
[5] = test system: Fusobacterium spp group 1; assay type: cell-based; settings: 19 isolates
[6] = test system: Prevotella buccae-oris group; assay type: cell-based; settings: Prevotella, 22 isolates
[7] = test system: Actinomyces odontolyticus; assay type: cell-based; settings: Schaalia odontolytica, 10 isolates
Bacteroides ureolyticus = assay type: cell-based; settings: 17 isolates
[8] = test system: Anaerobiospirillum succiniciproducens; assay type: cell-based; settings: 3 isolates
Prevotella bivia = assay type: cell-based; settings: Prevotella bivia, 21 isolates
Fusobacterium varium = assay type: cell-based; settings: Fusobacterium varium, 17 isolates
[9] = test system: Prevotella heparinolytica; assay type: cell-based; settings: 16 isolates
Porphyromonas spp. = assay type: cell-based, Porphyromonas cangingivalis, cansulci, circumdentaria, levii; settings: Porphyromonas, 11 isolates
[10] = test system: Peptostreptococcus asaccharolyticus; assay type: cell-based; settings: Peptoniphilus asaccharolyticus, 11 isolates
[11] = test system: Prevotella denticola/loeschii group; assay type: cell-based; settings: 6 isolates
Fusobacterium russii = assay type: cell-based
[12] = test system: Prevotella melaninogenica; assay type: cell-based; settings: Prevotella melaninogenica, 12 isolates
[13] = test system: Porphyromonas asaccharolyticus; assay type: cell-based, Porphyromonas asaccharolytica; settings: Porphyromonas, 11 isolates
[14] = test system: Peptostreptococcus micros; assay type: cell-based; settings: 12 isolates
Porphyromonas macaccae = assay type: cell-based; settings: Porphyromonas, 13 isolates
Actinomyces israelii = assay type: cell-based; settings: 6 isolates
[15] = test system: Clostridium clostridioforme; assay type: cell-based; settings: Clostridium, 11 isolates
[16] = read-out: Minimal Inhibitory Concentration 50% (MIC50)
[17] = read-out: Minimal Inhibitory Concentration 90% (MIC90)

CC[C@H]1OC(=O)[C@H](C)[C@@H](O[C@H]2C[C@@](C)(OC)[C@@H](O)[C@H](C)O2)[C@H](C)[C@@H](O[C@@H]2O[C@H](C)C[C@H](N(C)C)[C@H]2O)[C@](C)(O)C[C@@H](C)CN(C)[C@H](C)[C@@H](O)[C@]1(C)O [Azithromycin]
0.5 µg/mL: MIC90 (Porphyromonas gingivalis; [17]) | MIC90 (Bacteroides gracilis; Campylobacter gracilis, read-out: Minimal Inhibitory Concentration 90% (MIC90)) | MIC50 [1, 16] | MIC90 (Prevotella intermedia; Prevotella intermedia, read-out: Minimal Inhibitory Concentration 90% (MIC90)) | MIC50 [6, 16] | MIC50 ([8]; Anaerobiospirillum succiniciproducens, read-out: Minimal Inhibitory Concentration 50% (MIC50)) | MIC50 (Prevotella bivia; [16]) | MIC50 ([9]; Prevotella heparinolytica, read-out: Minimal Inhibitory Concentration 50% (MIC50)) | MIC90 (Porphyromonas spp.; [17]) | MIC50 ([11]; Prevotella denticola, read-out: Minimal Inhibitory Concentration 50% (MIC50)) | MIC50 ([14]; Parvimonas micra, read-out: Minimal Inhibitory Concentration 50% (MIC50)) | MIC50 (Porphyromonas macaccae; [16]) | MIC90 (Porphyromonas macaccae; [17])
0.06 to 32 µg/mL: Minimal Inhibitory Concentration Range [5]
0.5 to 1 µg/mL: Minimal Inhibitory Concentration Range [8] | Minimal Inhibitory Concentration Range [9] | Minimal Inhibitory Concentration Range [14]
0.25 µg/mL: MIC50 (Porphyromonas gingivalis; [16]) | MIC50 (Clostridium ramosum; [16]) | MIC50 (Porphyromonas canoris; [16]) | MIC90 (Porphyromonas canoris; [17]) | MIC90 (Bacteroides ureolyticus; Campylobacter ureolyticus, read-out: Minimal Inhibitory Concentration 90% (MIC90)) | MIC50 (Porphyromonas spp.; [16]) | MIC50 (Fusobacterium russii; Fusobacterium russii, read-out: Minimal Inhibitory Concentration 50% (MIC50)) | MIC50 [12, 16] | MIC50 [13, 16]
0.06 to 16 µg/mL: Minimal Inhibitory Concentration Range [11]
0.03 to 32 µg/mL: Minimal Inhibitory Concentration Range (Fusobacterium russii)
1 to 16 µg/mL: Minimal Inhibitory Concentration Range (Bilophila wadsworthia)
4 µg/mL: MIC50 (Veillonella spp.; [16]) | MIC50 (Bilophila wadsworthia; Bilophila wadsworthia, read-out: Minimal Inhibitory Concentration 50% (MIC50)) | MIC50 [4, 16] | MIC50 [10, 16]
0.06 to 0.5 µg/mL: Minimal Inhibitory Concentration Range (Bacteroides gracilis)
0.03 to 1 µg/mL: Minimal Inhibitory Concentration Range (Prevotella intermedia)
8 µg/mL: MIC90 ([5]; Fusobacterium, GROUP1, read-out: Minimal Inhibitory Concentration 90% (MIC90))
0.125 µg/mL: MIC50 (Bacteroides gracilis; Campylobacter gracilis, read-out: Minimal Inhibitory Concentration 50% (MIC50)) | MIC50 (Prevotella intermedia; Prevotella intermedia, read-out: Minimal Inhibitory Concentration 50% (MIC50))
0.03 µg/mL: MIC50 [7, 16]
2 µg/mL: MIC50 (Clostridium dfficile; [16]) | MIC90 (Bacteroides tectum; Bacteroides pyogenes, read-out: Minimal Inhibitory Concentration 90% (MIC90))
1 µg/mL: MIC90 [1, 17] | MIC50 (Bacteroides tectum; Bacteroides pyogenes, read-out: Minimal Inhibitory Concentration 50% (MIC50)) | MIC50 ([5]; Fusobacterium, GROUP1, read-out: Minimal Inhibitory Concentration 50% (MIC50)) | MIC90 [6, 17] | MIC90 (Prevotella bivia; [17]) | MIC90 ([9]; Prevotella heparinolytica, read-out: Minimal Inhibitory Concentration 90% (MIC90)) | MIC90 ([14]; Parvimonas micra, read-out: Minimal Inhibitory Concentration 90% (MIC90))
> 32 µg/mL: MIC90 (Veillonella spp.; [17]) | MIC90 (Clostridium ramosum; [17]) | MIC90 (Clostridium dfficile; read-out: Minimal Inhibitory Concentration 90% (MIC90), 14 isolates) | MIC90 (Clostridium inocuum; [17]) | MIC50 (Clostridium inocuum; [16]) | MIC90 [4, 17] | MIC90 (Fusobacterium varium; [17]) | MIC90 [10, 17] | MIC90 [13, 17] | MIC90 [15, 17]
32 µg/mL: MIC90 [2, 17] | MIC50 [3] | MIC50 (Fusobacterium varium; [16]) | MIC90 (Fusobacterium russii; Fusobacterium russii, read-out: Minimal Inhibitory Concentration 90% (MIC90)) | MIC90 [12, 17]
0.5 to 2 µg/mL: Minimal Inhibitory Concentration Range (Bacteroides tectum)
16 µg/mL: MIC50 [2, 16] | MIC90 (Bilophila wadsworthia; Bilophila wadsworthia, read-out: Minimal Inhibitory Concentration 90% (MIC90)) | MIC50 [15, 16]
0.06 to 0.25 µg/mL: Minimal Inhibitory Concentration Range (Bacteroides ureolyticus)
0.06 µg/mL: MIC90 [7, 17] | MIC50 (Bacteroides ureolyticus; Campylobacter ureolyticus, read-out: Minimal Inhibitory Concentration 50% (MIC50)) | Minimal Inhibitory Concentration Range (Actinomyces israelii) | MIC50 (Actinomyces israelii; Actinomyces israelii, read-out: Minimal Inhibitory Concentration 50% (MIC50))
